Test results as given in PMC11410943 (Nature Communications, 2024).
Values after ≈ are worked out from the molar mass of the structure shown. Where two headings read alike, the source gives them in different places.

How the values were obtained:
Escherichia coli = assay: MIC
Pseudomonas aeruginosa = assay: MIC
Klebsiella pneumoniae = assay: MIC
Acinetobacter baumannii = assay: MIC; details: IHMA/CARB-X MDR clinical isolates 2019, N=298
Enterobacter cloacae = assay: MIC; details: IHMA/CARB-X MDR clinical isolates 2019, N=152
Citrobacter spp. = assay: MIC
Proteus spp. = assay: MIC
Morganella morganii = assay: MIC; details: IHMA/CARB-X MDR clinical isolates 2019, N=42
Neisseria gonorrhoeae = assay: MIC; details: IHMA/CARB-X isolates 1997 to 2021, N=90
E. coli gyrase = E. coli gyrase (Escherichia coli, UniProt P0AES4); assay: E. coli gyrase supercoiling inhibition; assay type: biochemical
E. coli topoisomerase IV = E. coli topoisomerase IV (Escherichia coli, UniProt P0AFI2); assay: E. coli topoisomerase IV decatenation inhibition; assay type: biochemical
[1] = tested on: MDR Gram-negative and Gram-positive pathogens; assay: MIC
hERG K+ channel = hERG K+ channel (Homo sapiens, UniProt Q12809); assay: hERG automated patch-clamp; assay type: cell-based
Serratia marcescens = assay: MIC; details: IHMA/CARB-X MDR clinical isolates 2019, N=45
[2] = tested on: Stenotrophomonas maltophilia; assay: MIC; details: IHMA/CARB-X MDR clinical isolates 2019, N=150
[3] = IHMA/CARB-X MDR clinical isolates 2019, N=300
[4] = IHMA/CARB-X MDR clinical isolates 2019, N=151
[5] = IHMA/CARB-X MDR clinical isolates 2019, N=152

E. coli topoisomerase IV, sequence (P0AFI2 whole entry): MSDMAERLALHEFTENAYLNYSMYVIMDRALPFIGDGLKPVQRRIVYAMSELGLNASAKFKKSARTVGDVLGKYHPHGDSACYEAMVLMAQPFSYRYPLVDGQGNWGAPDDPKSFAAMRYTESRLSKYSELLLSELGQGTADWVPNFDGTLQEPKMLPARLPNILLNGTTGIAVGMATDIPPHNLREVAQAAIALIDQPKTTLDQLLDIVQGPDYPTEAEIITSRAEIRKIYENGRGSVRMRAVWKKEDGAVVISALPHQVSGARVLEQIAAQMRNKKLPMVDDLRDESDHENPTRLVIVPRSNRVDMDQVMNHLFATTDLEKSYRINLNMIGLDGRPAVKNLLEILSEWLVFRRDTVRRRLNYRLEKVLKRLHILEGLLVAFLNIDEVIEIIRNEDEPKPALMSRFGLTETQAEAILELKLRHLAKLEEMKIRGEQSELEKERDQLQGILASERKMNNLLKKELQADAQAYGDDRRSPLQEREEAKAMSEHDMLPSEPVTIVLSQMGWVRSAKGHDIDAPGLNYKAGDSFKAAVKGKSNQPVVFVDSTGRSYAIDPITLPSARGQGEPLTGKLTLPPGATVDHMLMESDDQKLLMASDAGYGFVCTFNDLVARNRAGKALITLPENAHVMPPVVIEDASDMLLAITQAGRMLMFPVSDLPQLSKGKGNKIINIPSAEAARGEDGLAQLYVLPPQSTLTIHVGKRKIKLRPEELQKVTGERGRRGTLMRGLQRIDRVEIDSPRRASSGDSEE
E. coli topoisomerase IV, sequence (P20083 whole entry partner): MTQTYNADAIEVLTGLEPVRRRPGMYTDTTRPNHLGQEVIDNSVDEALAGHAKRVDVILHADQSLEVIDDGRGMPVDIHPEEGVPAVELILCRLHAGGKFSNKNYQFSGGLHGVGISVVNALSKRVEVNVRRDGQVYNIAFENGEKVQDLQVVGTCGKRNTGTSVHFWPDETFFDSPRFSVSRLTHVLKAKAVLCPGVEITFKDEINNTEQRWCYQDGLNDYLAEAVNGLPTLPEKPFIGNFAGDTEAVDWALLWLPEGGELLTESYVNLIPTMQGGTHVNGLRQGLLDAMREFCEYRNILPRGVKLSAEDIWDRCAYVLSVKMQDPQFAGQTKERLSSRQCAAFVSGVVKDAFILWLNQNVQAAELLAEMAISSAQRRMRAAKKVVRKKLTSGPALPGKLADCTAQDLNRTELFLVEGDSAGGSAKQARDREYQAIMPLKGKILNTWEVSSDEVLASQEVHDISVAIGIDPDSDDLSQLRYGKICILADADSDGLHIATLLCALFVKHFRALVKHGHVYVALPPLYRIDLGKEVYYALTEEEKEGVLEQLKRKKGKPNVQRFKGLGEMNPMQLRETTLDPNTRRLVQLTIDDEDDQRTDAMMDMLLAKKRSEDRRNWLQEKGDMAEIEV
E. coli gyrase, sequence (P0AES4 whole entry): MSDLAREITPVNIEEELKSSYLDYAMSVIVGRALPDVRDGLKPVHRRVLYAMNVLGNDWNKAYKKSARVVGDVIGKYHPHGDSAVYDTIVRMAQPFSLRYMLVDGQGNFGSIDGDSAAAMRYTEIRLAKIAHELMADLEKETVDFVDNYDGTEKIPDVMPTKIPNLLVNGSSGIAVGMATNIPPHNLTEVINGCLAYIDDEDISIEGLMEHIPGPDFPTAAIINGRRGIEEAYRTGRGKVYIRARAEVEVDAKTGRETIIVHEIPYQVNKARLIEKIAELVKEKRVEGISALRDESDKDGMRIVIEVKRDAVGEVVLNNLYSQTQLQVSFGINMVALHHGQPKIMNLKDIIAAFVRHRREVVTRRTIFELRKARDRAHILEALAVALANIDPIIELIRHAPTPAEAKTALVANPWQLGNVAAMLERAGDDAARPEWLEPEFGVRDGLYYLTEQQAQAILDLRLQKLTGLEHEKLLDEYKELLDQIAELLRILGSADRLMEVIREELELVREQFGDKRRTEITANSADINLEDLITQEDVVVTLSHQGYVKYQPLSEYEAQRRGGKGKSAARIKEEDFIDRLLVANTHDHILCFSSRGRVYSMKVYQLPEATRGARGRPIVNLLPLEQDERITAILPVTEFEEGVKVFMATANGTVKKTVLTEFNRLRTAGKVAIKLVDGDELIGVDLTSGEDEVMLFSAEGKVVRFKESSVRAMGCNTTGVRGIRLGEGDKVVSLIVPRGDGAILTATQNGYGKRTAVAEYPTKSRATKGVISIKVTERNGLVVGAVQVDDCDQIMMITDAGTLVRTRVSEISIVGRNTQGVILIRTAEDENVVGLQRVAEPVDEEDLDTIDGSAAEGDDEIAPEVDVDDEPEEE
hERG K+ channel, sequence (Q12809 whole entry): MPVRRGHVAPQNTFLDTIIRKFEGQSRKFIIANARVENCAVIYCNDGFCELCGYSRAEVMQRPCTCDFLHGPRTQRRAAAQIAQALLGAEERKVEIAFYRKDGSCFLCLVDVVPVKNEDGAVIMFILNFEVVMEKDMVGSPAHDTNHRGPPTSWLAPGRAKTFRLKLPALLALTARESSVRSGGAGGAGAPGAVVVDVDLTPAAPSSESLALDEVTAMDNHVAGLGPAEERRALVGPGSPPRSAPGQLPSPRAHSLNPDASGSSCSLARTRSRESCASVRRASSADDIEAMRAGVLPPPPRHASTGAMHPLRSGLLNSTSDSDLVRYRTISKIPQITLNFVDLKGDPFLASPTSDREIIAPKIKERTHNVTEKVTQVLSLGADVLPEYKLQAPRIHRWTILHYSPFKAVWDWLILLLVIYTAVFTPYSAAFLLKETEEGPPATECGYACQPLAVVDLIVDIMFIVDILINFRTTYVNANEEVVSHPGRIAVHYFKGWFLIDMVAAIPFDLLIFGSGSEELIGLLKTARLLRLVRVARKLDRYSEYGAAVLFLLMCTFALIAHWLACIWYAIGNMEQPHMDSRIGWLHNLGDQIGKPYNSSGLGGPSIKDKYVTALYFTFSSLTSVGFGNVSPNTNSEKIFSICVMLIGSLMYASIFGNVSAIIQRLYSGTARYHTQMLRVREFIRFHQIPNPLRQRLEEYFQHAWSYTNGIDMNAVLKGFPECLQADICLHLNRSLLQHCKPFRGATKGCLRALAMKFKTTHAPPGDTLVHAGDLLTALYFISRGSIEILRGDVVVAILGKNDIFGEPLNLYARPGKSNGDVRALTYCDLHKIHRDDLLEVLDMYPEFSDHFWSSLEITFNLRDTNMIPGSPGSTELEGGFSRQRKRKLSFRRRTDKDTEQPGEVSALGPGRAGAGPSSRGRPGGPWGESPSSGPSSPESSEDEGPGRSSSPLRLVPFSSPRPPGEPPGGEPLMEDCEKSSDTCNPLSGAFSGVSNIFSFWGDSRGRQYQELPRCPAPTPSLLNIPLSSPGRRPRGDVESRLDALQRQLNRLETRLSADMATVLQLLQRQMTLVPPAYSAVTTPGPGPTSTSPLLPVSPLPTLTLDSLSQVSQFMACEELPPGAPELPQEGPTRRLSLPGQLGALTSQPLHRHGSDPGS

Molecule	MIC90 (Escherichia coli; Escherichia coli) [µg/mL]	MIC90 (Pseudomonas aeruginosa; Pseudomonas aeruginosa) [µg/mL]	MIC90 (Klebsiella pneumoniae; Klebsiella pneumoniae) [µg/mL]	MIC90 (Acinetobacter baumannii; Acinetobacter baumannii) [µg/mL]	MIC90 (Enterobacter cloacae; Enterobacter cloacae) [µg/mL]	MIC90 (Citrobacter spp.; Citrobacter) [µg/mL]	MIC90 (Proteus spp.) [µg/mL]	MIC90 (Morganella morganii; Morganella morganii) [µg/mL]	other results
NCC[C@H](O)C(=O)N[C@@H]1C[C@H](N)[C@@H](O[C@H]2O[C@H](CN)[C@@H](O)[C@H](O)[C@H]2O)[C@H](O)[C@H]1O[C@H]1O[C@H](CO)[C@@H](O)[C@H](N)[C@H]1O [Amikacin]	8 (≈ 13.7 µM)	64 (≈ 109 µM)	32 (≈ 54.6 µM)	> 64	4 (≈ 6.83 µM)	4 (≈ 6.83 µM)	4 (≈ 6.83 µM)	8 (≈ 13.7 µM)	
C[C@H]1[C@H](NC(=O)/C(=N\OC(C)(C)C(=O)O)c2csc(N)n2)C(=O)N1S(=O)(=O)O [Aztreonam]	> 64	> 16	> 64			64 (≈ 147 µM)	0.5 (≈ 1.15 µM)	16 (≈ 36.7 µM)	
CO/N=C(\C(=O)N[C@@H]1C(=O)N2C(C(=O)[O-])=C(C[N+]3(C)CCCC3)CS[C@H]12)c1csc(N)n1 [Cefepime]	> 32	> 32	> 32	> 32		> 32	16 (≈ 33.3 µM)	> 32	
CC(C)(O/N=C(\C(=O)N[C@@H]1C(=O)N2C(C(=O)[O-])=C(C[N+]3(CCNC(=O)c4ccc(O)c(O)c4Cl)CCCC3)CS[C@H]12)c1csc(N)n1)C(=O)O [Cefiderocol]	2 (≈ 2.66 µM)	2 (≈ 2.66 µM)	2 (≈ 2.66 µM)	4 (≈ 5.32 µM)	4 (≈ 5.32 µM)	2 (≈ 2.66 µM)	0.5 (≈ 0.665 µM)	1 (≈ 1.33 µM)	
COCC1=C(C(=O)O)N2C(=O)[C@@H](NC(=O)/C(=N\OC)c3csc(N)n3)[C@H]2SC1 [Cefpodoxime]	> 32		> 32		64 (≈ 150 µM)	> 32	> 32	> 32	
CC(C)(O/N=C(\C(=O)N[C@@H]1C(=O)N2C(C(=O)[O-])=C(C[n+]3ccccc3)CS[C@H]12)c1csc(N)n1)C(=O)O [Ceftazidime]	64 (≈ 117 µM)	> 32	> 64	> 32	128 (≈ 234 µM)	> 64	2 (≈ 3.66 µM)	16 (≈ 29.3 µM)	
CO/N=C(\C(=O)N[C@@H]1C(=O)N2C(C(=O)O)=C(CSc3nc(=O)c(=O)[nH]n3C)CS[C@H]12)c1csc(N)n1 [Ceftriaxone]									MIC90 (Neisseria gonorrhoeae): 0.06 µg/mL (≈ 0.108 µM)
NCCCC1CN(c2ccc3c(n2)NC(=O)CO3)C(=O)O1 (centres unmarked) [Compound 1, 6-[5-(3-Aminopropyl)−2-oxo-3-oxazolidinyl]−2H-pyrido[3,2-b]−1,4-oxazin-3(4H)-one]									IC50 (E. coli gyrase): 13.2 µM; IC50 (E. coli topoisomerase IV): 27 µM; MIC [1]: 80 to 160 µg/mL (≈ 274 to 547 µM)
CN1C(=O)Cc2ccc(F)c(CNCCCC3CN(c4ccc5c(n4)NC(=O)CO5)C(=O)O3)c21 (centres unmarked) [Compound 2, 6-[5-[3-[[(6-Fluoro-2,3-dihydro-1-methyl-2-oxo-1H-indol-7-yl)methyl]amino]propyl]−2-oxo-3-oxazolidinyl]−2H-pyrido[3,2-b]−1,4-oxazin-3(4H)-one]									improvement in gyrase supercoiling and topoIV decatenation IC50 over compound 1 (E. coli gyrase): > 100 fold
CN1C(=O)Cc2ccc(F)c(CCNCC[C@H]3CN(c4ccc5c(n4)NC(=O)CO5)C(=O)O3)c21 [Compound 3, 6-[(5S)−5-[2-[[2-(6-fluoro-2,3-dihydro-1-methyl-2-oxo-1H-indol-7-yl)ethyl]amino]ethyl]−2-oxo-3-oxazolidinyl]−2H-pyrido[3,2-b]−1,4-oxazin-3(4H)-one]									improvement in gyrase supercoiling and topoIV decatenation IC50 over compound 1 (E. coli gyrase): > 100 fold; IC50 (E. coli topoisomerase IV): 0.36 µM
CN1C(=O)Cc2ccc(F)c(CCNC[C@H]3CN(c4ccc5c(n4)NC(=O)CO5)C(=O)O3)c21 [Compound 4, (S)−6-(5-(((2-(6-fluoro-1-methyl-2-oxoindolin-7-yl)ethyl)amino)methyl)−2-oxooxazolidin-3-yl)−2H-pyrido[3,2-b] [1,4] oxazin-3(4H)-one]									IC50 (E. coli gyrase): 0.036 µM; IC50 (E. coli topoisomerase IV): 0.057 µM
Cn1c(=O)ccc2ccc(F)c(CCNC[C@H]3CN(c4ncc5c(n4)NC(=O)CO5)C(=O)O3)c21 [Compound 6, 2-[(5S)−5-[[[2-(7-Fluoro-1,2-dihydro-1-methyl-2-oxo-8-quinolinyl)ethyl]amino]methyl]−2-oxo-3-oxazolidinyl]−6H-pyrimido[5,4-b][1,4]oxazin-7(8H)-one]									increase in hERG IC50 vs compound 5 (hERG K+ channel): > 10 fold
Cn1c(=O)cnc2ccc(F)c(CCNC[C@H]3CN(c4cnc5c(n4)NC(=O)CO5)C(=O)O3)c21 [Compound 7, 6-[(5S)−5-[[[2-(6-Fluoro-3,4-dihydro-4-methyl-3-oxo-5-quinoxalinyl)ethyl]amino]methyl]−2-oxo-3-oxazolidinyl]−2H-pyrazino[2,3-b]−1,4-oxazin-3(4H)-one]									increase in hERG IC50 vs compound 5 (hERG K+ channel): 4 fold
Cn1c(=O)ccc2ccc(F)c(CCNC[C@@H]3CN(c4cnc5c(n4)NC(=O)CO5)C(=O)O3)c21 [Compound 8, 6-[(5 R)−5-[[[2-(7-Fluoro-1,2-dihydro-1-methyl-2-oxo-8-quinolinyl)ethyl]amino]methyl]−2-oxo-3-oxazolidinyl]−2H-pyrazino[2,3-b]−1,4-oxazin-3(4H)-one]									IC50 (hERG K+ channel): 60 µM
C[C@H]1c2cccc(O)c2C(=O)C2=C(O)[C@]3(O)C(=O)C(C(N)=O)=C(O)[C@@H](N(C)C)[C@@H]3[C@@H](O)[C@@H]21 [Doxycycline]	32 (≈ 72 µM)	32 (≈ 72 µM)	32 (≈ 72 µM)	64 (≈ 144 µM)	16 (≈ 36 µM)	16 (≈ 36 µM)	> 32	64 (≈ 144 µM)	
CN(C)[C@@H]1C(O)=C(C(N)=O)C(=O)[C@@]2(O)C(O)=C3C(=O)c4c(O)c(NC(=O)CN5CCCC5)cc(F)c4C[C@H]3C[C@@H]12 [Eravacycline]	0.25 (≈ 0.448 µM)		1 (≈ 1.79 µM)			0.5 (≈ 0.895 µM)	2 (≈ 3.58 µM)	1 (≈ 1.79 µM)	
CNC(C)C1CCC(N)C(OC2C(N)CC(N)C(OC3OCC(C)(O)C(NC)C3O)C2O)O1 (centres unmarked) [Gentamicin]	> 32	> 32	> 32	> 32	1 (≈ 2.09 µM)	8 (≈ 16.8 µM)	16 (≈ 33.5 µM)	64 (≈ 134 µM)	
C[C@H]1COc2c(N3CCN(C)CC3)c(F)cc3c(=O)c(C(=O)O)cn1c23 [Levofloxacin]	16 (≈ 44.3 µM)	32 (≈ 88.6 µM)	> 32	> 32	64 (≈ 177 µM)	2 (≈ 5.53 µM)	8 (≈ 22.1 µM)	16 (≈ 44.3 µM)	
C[C@@H](O)[C@H]1C(=O)N2C(C(=O)O)=C(S[C@@H]3CN[C@H](C(=O)N(C)C)C3)[C@H](C)[C@H]12 [Meropenem]	≤ 0.06	32 (≈ 83.4 µM)	32 (≈ 83.4 µM)	> 64	8 (≈ 20.9 µM)	≤ 0.06	0.125 (≈ 0.326 µM)	0.125 (≈ 0.326 µM)	
CN[C@@H]1[C@@H](O)[C@@H](O[C@@H]2[C@@H](O)[C@H](O[C@H]3OC(CNCCO)=CC[C@H]3N)[C@@H](N)C[C@H]2NC(=O)[C@@H](O)CCN)OC[C@]1(C)O [Plazomicin]	1 (≈ 1.69 µM)		0.5 (≈ 0.844 µM)		0.5 (≈ 0.844 µM)	0.5 (≈ 0.844 µM)	4 (≈ 6.75 µM)	8 (≈ 13.5 µM)	
NC[C@H]1O[C@H](O[C@H]2[C@H](O)[C@@H](O[C@H]3O[C@H](CO)[C@@H](O)[C@H](N)[C@H]3O)[C@H](N)C[C@@H]2N)[C@H](N)C[C@@H]1O [Tobramycin]	16 (≈ 34.2 µM)	> 32	> 32	> 32	32 (≈ 68.4 µM)	8 (≈ 17.1 µM)	8 (≈ 17.1 µM)	16 (≈ 34.2 µM)	
Aztreonam/Avibactam									MIC90 (Escherichia coli; [3]): 0.125 µg/mL; MIC90 (Pseudomonas aeruginosa; [3]): > 16 µg/mL; MIC90 (Klebsiella pneumoniae; [3]): 0.25 µg/mL; MIC90 (Enterobacter cloacae): 0.5 µg/mL; MIC90 (Citrobacter spp.; [4]): 0.25 µg/mL; MIC90 (Proteus spp.; [5]): ≤ 0.016 µg/mL; MIC90 (Serratia marcescens): 0.25 µg/mL; MIC90 (Morganella morganii): 0.06 µg/mL
Ceftazidime-Avibactam									MIC90 (Escherichia coli; [3]): 0.25 µg/mL; MIC90 (Pseudomonas aeruginosa; [3]): > 16 µg/mL; MIC90 (Klebsiella pneumoniae; [3]): 1 µg/mL; MIC90 (Enterobacter cloacae): 2 µg/mL; MIC90 (Citrobacter spp.; [4]): 0.5 µg/mL; MIC90 (Proteus spp.; [5]): 0.06 µg/mL; MIC90 (Serratia marcescens): 1 µg/mL; MIC90 (Morganella morganii): 0.125 µg/mL
Colistin									MIC90 (Escherichia coli; [3]): 0.25 µg/mL; MIC90 (Pseudomonas aeruginosa; [3]): 1 µg/mL; MIC90 (Klebsiella pneumoniae; [3]): 0.5 µg/mL; MIC90 (Acinetobacter baumannii): 0.5 µg/mL; MIC90 (Enterobacter cloacae): 2 µg/mL; MIC90 (Citrobacter spp.; [4]): 0.5 µg/mL; MIC90 (Proteus spp.; [5]): > 32 µg/mL; MIC90 (Serratia marcescens): > 32 µg/mL; MIC90 (Morganella morganii): 64 µg/mL; MIC90 [2]: > 32 µg/mL
Meropenem-vaborbactam									MIC90 (Escherichia coli; [3]): ≤ 0.03 µg/mL; MIC90 (Pseudomonas aeruginosa; [3]): 32 µg/mL; MIC90 (Klebsiella pneumoniae; [3]): 16 µg/mL; MIC90 (Acinetobacter baumannii): > 32 µg/mL; MIC90 (Enterobacter cloacae): 0.25 µg/mL; MIC90 (Citrobacter spp.; [4]): ≤ 0.03 µg/mL; MIC90 (Proteus spp.; [5]): 0.125 µg/mL; MIC90 (Serratia marcescens): 0.125 µg/mL; MIC90 (Morganella morganii): 0.06 µg/mL; MIC90 [2]: > 32 µg/mL
Piperacillin/Tazobactam									MIC90 (Pseudomonas aeruginosa; [3]): 128 µg/mL; MIC90 (Acinetobacter baumannii): > 128 µg/mL; MIC90 (Enterobacter cloacae): 0.06 µg/mL; MIC90 [2]: > 128 µg/mL
